Measured values: publication PMC9972480, “Synthesis of Quinoline and Dihydroquinoline Embelin Derivatives as Cardioprotective Agents” (Journal of Natural Products, 2023)

Columns and labels:
[1] = MTT cell viability assay (cytotoxicity) in J774 macrophages; type: cell-based, murine; settings: mouse
Protocol: (§1) The potential cytotoxicity of embelin (1) together with derivatives (4a–4m, 5a–5d, 6a–6m) was tested in cardiomyocytes and macrophages in order to ensure that compounds lack toxicity also in immune cells. Cell viability was determined by the MTT assay.[58] Four dihydroquinoline derivatives (4b, 4f, 4i, and 4m) and six quinoline compounds (6a, 6d, 6e, 6i, 6k, and 6m) maintained higher viable cell rates in both types of cells. IC50 values of these derivatives were higher than 40 μM and were selected for further analysis.
(§2) J774A.1 murine macrophage cells, H9c2 embryonic rat heart-derived cells, and MCF-7 breast cancer cells were purchased from American Type Cell Culture (ATCC, Manassas, VA, USA). Cells were cultured in Dulbecco’s modified Eagle medium with 10% fetal bovine serum and 1% penicillin/streptomycin (Lonza) and were maintained at 37 °C in a humidified incubator containing 5% CO2.
(§3) Cell viability was assessed by conducting an MTT [3-(4,5-dimethylthiazol-2-yl)-2,5-diphenyltetrazolium bromide dye] assay. Briefly, J 774A.1, H9c2, and MCF7 cells were seeded in 96-well plates for 24 h. Then, cells were treated with DOX in the absence or presence of compounds. MTT (Sigma) reagent was added to the medium for 1 h at 37 °C. Then, the formazan was dissolved in dimethyl sulfoxide (DMSO, 100 μL). Absorbance was measured at 540 nm with a microplate reader (BMG Labtech).

[2] = MTT cell viability assay (cytotoxicity) in H9c2 cardiomyocytes; type: cell-based, rat; settings: rat, H9c2 cardiomyocytes, 24 h, MTT; for viability at 24 h, 10 µM / viability at 24 h, 20 µM: mean ± SD, n = 3; for IC50 at 24 h: H9c2 cardiomyocytes (embryonic heart-derived cells), stated for both types of cells
Protocol: as §1, §2, §3

Compound | viability at 24 h, 10 µM ([1]; J774 macrophages, 10 μM, 24 h, MTT, mean ± SD, n = 3, read-out: Cell viability (%) J774 macrophages 10 μM) | viability at 24 h, 20 µM ([1]; J774 macrophages, 20 μM, 24 h, MTT, mean ± SD, n = 3, read-out: Cell viability (%) J774 macrophages 20 μM) | viability at 24 h, 10 µM [2] | viability at 24 h, 20 µM [2] | viability at 24 h, 10 µM [1] | viability at 24 h, 20 µM [1] | IC50 at 24 h [1] | IC50 at 24 h [2]
CCCCCCCCCCCC1=C(O)C(=O)C=C(O)C1=O [Compound 1, embelin] | 21.3 ± 2.7% | 15.3 ± 0.8% | 36.9 ± 5.8% | 8.3 ± 0.1% | – | – | – | –
CCCCCCCCCCCC1=C(O)C(=O)C=C(Nc2ccccc2)C1=O [Compound 5a, 2-Hydroxy-5-(phenylamino)-3-undecylcyclohexa-2,5-diene-1,4-dione] | – | – | 99 ± 7.1% | 83 ± 7% | 56.9 ± 4% | 56.2 ± 2% | – | –
CCCCCCCCCCCC1=C(O)C(=O)C=C(Nc2ccc(OC)cc2)C1=O [Compound 5b, 2-Hydroxy-5-((4-methoxyphenyl)amino)-3-undecylcyclohexa-2,5-diene-1,4-dione] | – | – | 89.3 ± 9.2% | 87.4 ± 6.7% | 68.4 ± 3.8% | 48.3 ± 1.7% | – | –
CCCCCCCCCCCC1=C(O)C(=O)C=C(Nc2ccc(Br)cc2)C1=O [Compound 5c, 5-((4-Bromophenyl)amino)-2-hydroxy-3-undecylcyclohexa-2,5-diene-1,4-dione] | – | – | 61.9 ± 2.7% | 56.1 ± 3.4% | 56.9 ± 5.5% | 39.4 ± 5.3% | – | –
CCCCCCCCCCCC1=C(O)C(=O)C=C(Nc2cccc([N+](=O)[O-])c2)C1=O [Compound 5d, 2-Hydroxy-5-((3-nitrophenyl)amino)-3-undecylcyclohexa-2,5-diene-1,4-dione] | – | – | 67.8 ± 2.1% | 57.5 ± 1.4% | 65.5 ± 1.9% | 50.8 ± 7% | – | –
CCCCCCCCCCCC1=C(O)C(=O)c2c(nc3ccccc3c2-c2ccccc2)C1=O [Compound 6b, 2-Hydroxy-9-phenyl-3-undecylacridine-1,4-dione] | – | – | 99.7 ± 2.1% | 68.1 ± 4.6% | 81.8 ± 4.7% | 63.9 ± 6.6% | – | –
CCCCCCCCCCCC1=C(O)C(=O)c2c(nc3ccccc3c2-c2ccc(Cl)cc2)C1=O [Compound 6c, 2-Hydroxy-9-(4-chlorophenyl)-3-undecylacridine-1,4-dione] | – | – | 95 ± 8.4% | 74.3 ± 4.8% | 83.4 ± 0.5% | 55.8 ± 5.7% | – | –
CCCCCCCCCCCC1=C(O)C(=O)c2c(nc3ccccc3c2-c2ccc(F)cc2)C1=O [Compound 6e, 2-Hydroxy-9-(4-fluorophenyl)-3-undecylacridine-1,4-dione] | – | – | 96.7 ± 8.1% | 93.9 ± 0.9% | 93.1 ± 4.5% | 76.6 ± 5.9% | > 40 µM | > 40 µM
CCCCCCCCCCCC1=C(O)C(=O)c2c(nc3ccccc3c2-c2cccc(F)c2)C1=O [Compound 6f, 2-Hydroxy-9-(3-fluorophenyl)-3-undecylacridine-1,4-dione] | – | – | 98.3 ± 4.9% | 84.5 ± 4.3% | 79.3 ± 4.6% | 62.2 ± 4.3% | – | –
CCCCCCCCCCCC1=C(O)C(=O)c2c(nc3ccccc3c2-c2ccc(C(=O)OC)cc2)C1=O [Compound 6g, Methyl 4-(2-hydroxy-1,4-dioxo-3-undecyl-1,4-dihydroacridin-9-yl)benzoate] | – | – | 88.7 ± 10.4% | 70.6 ± 3% | 78.4 ± 5.7% | 42.2 ± 0.3% | – | –
CCCCCCCCCCCC1=C(O)C(=O)c2c(nc3ccccc3c2-c2ccsc2)C1=O [Compound 6h, 2-Hydroxy-9-(thiophen-3-yl)-3-undecylacridine-1,4-dione] | – | – | 75.3 ± 5% | 71.1 ± 2.8% | 73.5 ± 2.8% | 56.7 ± 3.3% | – | –
CCCCCCCCCCCC1=C(O)C(=O)c2c(nc3ccccc3c2-c2ccc(C)c(C)c2)C1=O [Compound 6i, 2-Hydroxy-9-(3,4-dimethylphenyl)-3-undecylacridine-1,4-dione] | – | – | 99.8 ± 3% | 92.6 ± 5.4% | 93.3 ± 4.3% | 75.1 ± 2.9% | > 40 µM | > 40 µM
